Columns and labels:
[1] = Agonist activity at MRGPRX4 83L expressed in human HEK293 cells co- expressing Gq assessed as change in intracellular calcium level by calcium mobilization assay; format: cell-based
[2] = Agonist activity at MRGPRX4 83S expressed in human HEK293 cells co- expressing Gq assessed as change in intracellular calcium level by calcium mobilization assay; format: cell-based

| Compound | EC50 [1] | EC50 [2] |
| --- | --- | --- |
| COc1cccc(CCc2nc3c([nH]2)c(=O)n(CC#N)c(=O)n3CCCCP(=O)(O)O)c1 | 0.435 µM | 0.0112 µM |
| CC12CC3CC(C)(C1)CC(C(=O)N[C@H](Cc1ccccc1)C(=O)O)(C3)C2 | 0.00656 µM | 13.3 µM |
| C[C@H](CCC(=O)O)[C@H]1CC[C@H]2[C@@H]3CC[C@@H]4C[C@H](O)CC[C@]4(C)[C@H]3C[C@H](O)[C@]12C [DEOXYCHOLIC ACID] | – | 16.9 µM |
| CC(C)[C@H]1CC[C@H](C(=O)N[C@H](Cc2ccccc2)C(=O)O)CC1 [NATEGLINIDE] | – | > 10 µM |
| C[C@H](CCC(=O)NCCS(=O)(=O)O)[C@H]1CC[C@H]2[C@@H]3CC[C@@H]4C[C@H](O)CC[C@]4(C)[C@H]3C[C@H](O)[C@]12C [TAURODEOXYCHOLIC ACID] | > 10 µM | > 10 µM |

Source: ChEMBL document CHEMBL5375951, “Beware the Receptor Variants” (J Med Chem, 2023)
